Read-outs that look alike come from different tables or passages of the source.
How the values were obtained:
[1] = biological target: T1, GL-7ACA acylase J1 of Bacillus laterosporus J1 (SEQ ID NO: 3), purified from recombinant E. coli (Brevibacillus laterosporus, UniProt Q45289); experiment: Inhibition by reaction products (competitive), Ki determination by HPLC assay; type: biochemical; settings: substrate GL-7ACA, 37° C.
Description: Inhibitory activity of reaction products, namely 7-ACA and glutaric acid on the enzyme activity of GL-7ACA acylase J1 was examined. The enzyme activity was assayed in the presence of various concentrations of 7-ACA or glutaric acid. For determination of Ki of 7-ACA, reaction mixture (200 μl) containing 20 μmole of glycine buffer (pH 9), 0.39-2.0 μmole of GL-7ACA, 0.3-0.48 μmole of 7-ACA and 11 μg of enzyme was used and the reaction was performed at 37° C. for 6 min. For determination of Ki of glutaric acid, reaction mixture (200 μl) containing (a) 20 μmole of glycine buffer (pH 9), 0.26-3.0 μmol of GL-7ACA, 2-10 μmol of glutaric acid and 11 μg of the enzyme (b) 20 μmol of Tris-HCl buffer (pH 8), 0.05-1.0 μmol of GL-7ACA, […] of glutaric acid and 5 μg of the enzyme was used. The reaction was performed at 37° C. for 3 min. […] Ki values were calculated from the apparent Michaelis constants (Kmapp), Km and Vmax. Ki values of 7-ACA was 2.0 mM.

[2] = biological target: T1, GL-7ACA acylase J1 of Bacillus laterosporus J1 (SEQ ID NO: 3), purified from recombinant E. coli; experiment: biochemical; settings: for Relative activity (%): enzyme treated 37° C. 3 hours in 0.1 M Tris-HCl (pH 8), residual activity vs blank-treated enzyme, substrate GL-7ACA
Description: Effect of p-chloromercuribenzoate (pCMB, Sigma Chemical Co., Ltd.), phenylmethylsulfonyl fluoride (PMSF, Sigma) and ethylenediaminetetraacetic acid (EDTA, Nacalai Tesque Inc., Japan) on the activity of GL-7ACA acylase J1 was examined as follows. Eleven μg of GL-7ACA acylase J1 was treated at 37° C. for 3 hours with 1.0 or 5.0 mM pCMB, 1.0 or 5.0 mM PMSF, or 1.0 or 5.0 mM EDTA in 200 μl of 0.1 M Tris-HCl buffer (pH 8). Residual activity of the treated enzyme was assayed by adding 22 μl of GL-7ACA (20 mg/ml) as a substrate to the mixture. The reaction was performed at 37° C for 10 min. Residual activity was expressed as a percentage compared to the activity of the enzyme treated with blank solution.

[3] = test system: CC(=O)OCC1=C(C(=O)O)N2C(=O)C(NC(=O)CCCC(=O)O)[C@H]2SC1; experiment: Michaelis-Menten kinetics of GL-7ACA hydrolysis, HPLC assay, Lineweaver-Burk plot; type: biochemical, Bacillus laterosporus J1; settings: 37° C., 2 min
Description: Transformant colonies were picked up and grown overnight at 30° C. in 1 ml of 2% Bouillon (Eiken Chemical Co., Ltd., Japan) supplemented with 1 mM […] (IPTG; Sigma Chemical Co., Ltd., U.S.A.). Cells were harvested by centrifugation and resulting cell pellets were used for assay. Reaction mixture (200 μl ) containing 100 mM phosphate buffer (pH 8), 2 mg of GL-7ACA and cell pellets were thoroughly mixed and incubated for 10 min at 37° C. The reaction was terminated by the addition of 200 μl of 4% acetic acid. Samples were applied to a Inertsil ODS-2 column (4.6 mm × 150 mm) (Gasukuro Kogyo Co., Ltd., Japan) and elution was performed with 0.567 g/l of Na2 HPO4, 0.36 g/l of KH2 PO4 and 2-4% methanol. 7ACA was detected with absorption at 254 nm.
The activity of the GL-7ACA acylase J1 was determined by HPLC assay. […] Specific enzyme activity was expressed as unit per mg of protein. Protein concentrations were determined by Bio-Rad protein assay kit (Bio-Rad Co., Ltd., U.S.A.) with bovine serum albumin as a standard. Maximum specific enzyme activity (Vmax) and Michaelis constant (Km) were calculated from slope and intersection which were obtained by Lineweaver-Burk plot (Cf. M. Dixon and E. C. Webb, Enzymes, Longmans, London, 1958). […]

[4] = pH 8, read-out: Relative activity (%)

T1 sequence (Q45289 entry or part of it): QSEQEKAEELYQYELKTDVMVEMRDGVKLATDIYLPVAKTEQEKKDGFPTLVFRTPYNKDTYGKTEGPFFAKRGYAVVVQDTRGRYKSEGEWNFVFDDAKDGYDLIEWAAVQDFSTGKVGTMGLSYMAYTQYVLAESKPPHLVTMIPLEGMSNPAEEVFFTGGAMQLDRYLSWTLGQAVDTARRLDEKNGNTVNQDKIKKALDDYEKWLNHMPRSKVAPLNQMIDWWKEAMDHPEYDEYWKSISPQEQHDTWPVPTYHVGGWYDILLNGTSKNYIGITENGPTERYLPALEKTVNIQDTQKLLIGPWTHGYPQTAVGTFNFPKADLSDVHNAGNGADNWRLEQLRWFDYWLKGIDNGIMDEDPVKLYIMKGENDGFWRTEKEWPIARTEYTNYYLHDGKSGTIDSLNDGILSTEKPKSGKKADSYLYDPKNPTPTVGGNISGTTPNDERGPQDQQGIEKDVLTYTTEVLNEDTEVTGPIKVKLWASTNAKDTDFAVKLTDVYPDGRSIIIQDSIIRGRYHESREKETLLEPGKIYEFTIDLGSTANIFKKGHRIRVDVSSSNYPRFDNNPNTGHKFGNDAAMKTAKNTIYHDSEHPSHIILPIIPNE

CC(=O)OCC1=C(C(=O)O)N2C(=O)C(N)C2SC1 (centres unmarked) [7-ACA, 7-aminocephalosporanic acid]
Ki ([1]; glycine buffer (pH 9), 6 min, read-out: Ki of 7-ACA): 2000 µM

O=C(O)CN(CCN(CC(=O)O)CC(=O)O)CC(=O)O [EDTA, ethylenediaminetetraacetic acid]
activity at 1000 µM [2, 4]: 100%
activity at 5000 µM [2, 4]: 102%

O=S(=O)(F)Cc1ccccc1 [PMSF, phenylmethylsulfonyl fluoride]
Relative activity (%) ([2]; inhibitor 1 mM): 90%
Relative activity (%) ([2]; inhibitor 5 mM): 78%

O=C(O)CCCC(=O)O [glutaric acid]
Ki ([1]; 0.1M Tris-HCl buffer (pH 8), 3 min, read-out: Ki of glutaric acid): 990 µM
Ki ([1]; 0.1M glycine buffer (pH 9), 3 min, read-out: Ki of glutaric acid): 53000 µM

O=C(O)c1cc[c]([Hg][Cl])cc1 [pCMB, p-chloromercuribenzoate]
Relative activity (%) ([2]; inhibitor 1 mM): 106%
Relative activity (%) ([2]; inhibitor 5 mM): 104%

GL-7ACA acylase J1 of Bacillus laterosporus J1 (SEQ ID NO: 3), purified from recombinant E. coli (Brevibacillus laterosporus)
Km ([3]; other: 100 mM Tris-HCl buffer (pH 8), 0.16-5 mM GL-7ACA, pH 8.0): 140 µM
Km ([3]; other: 100 mM glycine buffer (pH 9), 1.4-20 mM GL-7ACA, pH 9.0): 3200 µM

Reference: patent publication US5310659A, “GL-7ACA acylase” (priority 1990, dated 1994)
